In the Kinase Knowledgebase extract (Sharma et al. 2016):
pIC50: −log10 of the molar value.

Experiments:
[1] = target: MAPK14 (UniProt Q16539); experiment: MAPK14 (p38) Inhibition; details: concentration not given here
[2] = target: MAPK14 (human) (UniProt Q16539); experiment: TNF-alpha Inhibition (PBMC)
[3] = system: MAPK14 (BALB/cJ mice); experiment: TNF-alpha Inhibition (Mice Model); details: dose or concentration not given here

MAPK14 (human), sequence (Q16539 whole entry, looked up): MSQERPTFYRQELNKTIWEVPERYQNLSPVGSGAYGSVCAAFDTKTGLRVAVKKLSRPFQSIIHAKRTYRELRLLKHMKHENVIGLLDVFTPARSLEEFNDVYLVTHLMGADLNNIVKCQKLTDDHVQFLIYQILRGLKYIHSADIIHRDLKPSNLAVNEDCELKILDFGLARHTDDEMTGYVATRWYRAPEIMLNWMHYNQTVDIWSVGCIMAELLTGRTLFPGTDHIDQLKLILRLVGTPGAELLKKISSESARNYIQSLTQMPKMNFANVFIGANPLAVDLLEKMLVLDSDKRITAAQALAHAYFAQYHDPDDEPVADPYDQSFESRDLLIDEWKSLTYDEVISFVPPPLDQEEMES
MAPK14, sequence (Q16539 whole entry, looked up): as above

SMILES	inhibition [1]	pIC50 [2]	further results
Fc1ccc(-c2[nH]c(C=C(Br)Br)nc2-c2ccncc2)cc1	93%		
O[C@@H](C#Cc1nc(-c2ccncc2)c(-c2ccc(F)cc2)[nH]1)c1ccccc1		6.40	
C[Si](C)(C)CCOCn1c(C#CCCCC#N)nc(-c2ccncc2)c1-c1ccc(F)cc1		< 5.70	
N#CCCCC#Cc1nc(-c2ccc(F)cc2)c(-c2ccncc2)[nH]1			inhibition [3]: 95%
C[Si](C)(C)CCOCn1c(C=C(Br)Br)nc(-c2ccncc2)c1-c1ccc(F)cc1	16%		

Further lines, with some results ahead:

inhibition [1]	pIC50 [2]	SMILES	further results
99%		OCCCC#Cc1nc(-c2ccc(F)cc2)c(-c2ccncc2)n1CCCc1ccccc1	
98%		OCCCCC#Cc1nc(-c2ccc(F)cc2)c(-c2ccncc2)n1CCCc1ccccc1	
	< 5.70	C[Si](C)(C)CCOCn1c(C#CCCCCO)nc(-c2ccncc2)c1-c1ccc(F)cc1	
	7.05	CCCCCCC#Cc1nc(-c2ccc(F)cc2)c(-c2ccncc2)n1CCCc1ccccc1	
